Source: patent EP1072673A2, “Perfume compositions” (THE PROCTER & GAMBLE COMPANY, priority 1999, dated 2001)
Read-outs that look alike come from different tables or passages of the source.

Tests used:
[1] = Bleach stability index (BSI) test: % AvO loss of perfumed bleach product in accelerated aging, by iodometric titration; settings: perfume ingredient at 0.2% via AE3S in PAP finished product, pH 3.8; 2 weeks at 40°C; BSI of at least 80% = not more than 20% AvO loss
Protocol: (§1) For this test, the pure perfume chemicals to be tested were diluted at 0.2% via a solubiliser, namely C10-C18 sodium alkyl sulfate condensed with an average of three moles of ethylene oxide (AE3S), then incorporated in a finished product and then subjected to the accelerated aging test. The accelerated aging test is set up as follows: 15 to 20g of each of the finished product incorporating the perfume ingredient was taken and placed in an oven for 2 weeks at 40°C. The aged samples were compared versus freshly made perfumed product (The reference) by measuring the AvO before storage from the reference and after storage from the aged product and expressing the difference in AvO as % loss.
(§2) The loss of available oxygen (AvO) of a bleach-containing composition over time can be measured with the iodometric titration method in which the bleach is reduced by excess potassium iodide and the iodine formed is determined by titration with sodium thiosulphate.

[2] = pH 3.8
Protocol: as §1, §2

Molecule	bleach stability index (BSI) [1]	bleach stability index (BSI) [2]
CCC/C=C/C=O [trans-2-hexenal]	at least 80%	
CCC/C=C/CO [trans-2-hexenol]	at least 80%	
CC=CC(=O)C1=C(C)CCCC1(C)C [2-Buten-1-one, 1-(2,6,6-trimethyl-1-cyclohexen-1-yl)-]	at least 80%	
C=CC(C)(CCC=C(C)C)OC(C)=O (stereo not shown) [linalyl acetate]	at least 80%	
CC1=CCC(CC#N)C1(C)C (stereo not shown) [cantryl]	at least 80%	
CC=CC(=O)OCCCCCC [Hexyl crotonate, hexyl 2-butenoate]	at least 80%	
OCC=Cc1ccccc1 [3-Phenyl-2-propen-1-ol]	at least 80%	
C=C(C=O)C(C)CCC=C(C)C (stereo not shown) [bergamal]	at least 80%	
CC(=O)OCCC(C)CCC=C(C)C (stereo not shown) [citronellyl acetate]	at least 80%	
C=CC(O)CCCCC (stereo not shown) [amyl vinyl carbinol]	at least 80%	
C=CC(=C)CCCC(C)(C)OC(C)=O [Myrcenyl acetate crude, 3-methylene-7-methyl-1-octen-7-yl acetate]	at least 80%	
CCC(=CCC1CC=C(C)C1(C)C)CO (stereo not shown) [Sanjinol, 2-Ethyl-4-(2,2,3-trimethyl-3-cyclopenten-1-yl)-2-buten-1-ol]	at least 80%	
CC(C)=CCCC(C)=CC#N [3,7-dimethyl-2,6-octadienenitrile]	at least 80%	
CC(C)(O)CCCC1=CCC(C=O)CC1 (stereo not shown) [lyral]	at least 80%	
CC(CO)CC(C)c1ccccc1 (stereo not shown) [2-Methyl-4-phenyl-1-pentanol]	at least 80%	
CC=C1CC2CC1C1CCCOC21 (stereo not shown) [5,8-Methano-2H-1-benzopyran, 6-ethylideneoctahydro-]	at least 80%	
CC1=CC(C)C(CO)CC1 (stereo not shown) [Floralol, dimethyl cyclohexene methanol]	at least 80%	
CCC(=O)OC1CC2CC1C1CC=CC21 (stereo not shown) [Frutene, tricyclo decenyl propionate]		at least 80%
C=CCOC(=O)COCCCCC [glycolic acid, 2-pentyloxy:allyl ester]		at least 80%
CC(=O)OCC=C(C)C [Prenyl acetate, 2-methylbuten-2-ol-4-acetate]	at least 80%	
CCCCCCC=CC(=O)OC [Beauvertate, methyl-2-nonenoate]	at least 80%	

Now from value to molecule, other results behind:

bleach stability index (BSI) [1]	Molecule	bleach stability index (BSI) [2]
at least 80%	COC(=O)c1ccccc1N=CC1CCC(C)=CC1C (stereo not shown) [ligantraal, Methyl 2-((-1-(2,4-dimethyl-3-cyclohexenyl)methylidene)amino)-1-benzenecarboxylate]	
at least 80%	CCCC(C)C=Nc1ccccc1C(=O)OC (stereo not shown) [mevantraal (q), Methyl 2-((-2-methylpentylidene)amino)-1-benzenecarboxylate]	
at least 80%	CC(C)=CCCC(C)CC=O (stereo not shown) [Citronellal, 3,7-Dimethyl-6-octen-1-al]	
at least 80%	CC(C)C=CC(=O)CC(C)C [isotagetone 50, 2,7-Dimethyloct-5-en-4-one]	
at least 80%	CC=CC(=O)C1C(C)=CCCC1(C)C (stereo not drawn) [alpha-damascone, 2-Buten-1-one, 1-(2,6,6-trimethyl-2-cyclohexen-1-yl)-]	
at least 80%	C=CCCCCCCCC=CCC#N [3,12-tridecadiene nitrile]	
at least 80%	OC/C=C/c1ccccc1 [cinnamic alcohol]	
at least 80%	CCC=C(C)C(O)CCCCC (stereo not shown) [undecavertol, 4-Methyl-3-decen-5-ol]	
at least 80%	CC(=O)/C=C/C1=C(C)CCCC1(C)C [ionone beta]	
at least 80%	CC(=O)/C=C/C1C(C)=CCCC1(C)C (stereo not drawn) [ionone alpha]	
at least 80%	CC1=CCC(CCC(C)C(C)O)C1(C)C (stereo not shown) [Sandalore, 5-(2,2,3-Trimethyl-3-cyclopentenyl)-3-methylpentan-2-ol]	
at least 80%	CC=CC(=O)OC1CCCC1C1CCCC1 (stereo not shown) [2-cyclopentyl-cyclopentyl 2-butenoate]	
at least 80%	C=CC(C)(O)CCC=C(C)C (stereo not shown) [Linalool, 3,7-Dimethyl-1,6-octadien-3-ol]	
at least 80%	CC=CC(=O)OC(C)CC(C)C (stereo not shown) [Frutinat.exp, 4-methyl-pentan-2-ol 2-butenoate]	
at least 80%	C=CCOC(=O)COCCC(C)C [allyl amyl glycolate]	
at least 80%	O=c1ccc2ccccc2o1 [coumarin, 1,2-benzopyrone]	
at least 80%	C/C=C(/C)C(=O)OCC(C)C [isobutyl angelate]	
at least 80%	C=CC(C)CCCC(C)(C)O (stereo not shown) [Dihydro myrcenol, 2,6-dimethyl-7-octen-2-ol]	
at least 80%	CC(C)=CCOC(=O)c1ccccc1O [prenyl salicylate]	
at least 80%	2,5,10-Trimethyl-2,5,9-cyclododecatrien-1-yl methyl ketone & isomers [trimofix o]	
at least 80%	CCCCCCC(C=O)=Cc1ccccc1 [hexyl cinnamic aldehyde]	
at least 80%	C=CC(C)(C#N)Cc1ccccc1 (stereo not shown) [2-Benzyl-2-methyl-3-butenenitril]	
at least 80%	CC(C)=CCCC(C)CCO (stereo not shown) [citronellol, 3,7-dimethyl-6-octen-1-ol]	
at least 80%	C=CCCCCCCCCO [rosalva, 9-Decen-1-ol]	
at least 80%	CC(C)CCCC1=CCC(C)(C=O)CC1 (stereo not shown) [1-Methyl-4-(4-methylpentyl)-3-cyclohexenecarbaldehyde]	
at least 80%	CC1(C)CCCC2=C1CC(C=O)CC2 (stereo not shown) [melafleur]	
at least 80%	O=C1CCCC=CCCCCCCCCCC1 [ambretone]	
at least 80%	CCOC(=O)C1=C(C)C=CCC1(C)C [Ethyl safranate, ethyl 2,6,6-trimethyl-1,3-cyclohexdiene-1-carboxylate]	
